# Reference: ChEMBL document CHEMBL4419178, “Yap1 inhibitors that target the interaction of yap1 with oct4” (2018)
# Calls of active or inactive are those of the source. The calls are words filed in the database; no cut-off is given here.
# Key:
# NCI-H1650 [1] = assay: Cytotoxicity in human NCI-H1650 cells assessed as induction of cell killing in presence of cancer associated fibroblasts at 20 to 50 uM incubated for 24 to 48 hrs by cytotracker-red/green dye staining based immunofluorescence microscopy; type: functional
# [2] = Cytotoxicity in human cancer associated fibroblasts at 20 to 50 uM incubated for 24 to 48 hrs by cytotracker-red/green dye staining based immunofluorescence microscopy
# NCI-H1650 [3] = assay: Inhibition of self-renewal capacity in stem-like side-population cells of human NCI-H1650 cells assessed as reduction in number of spheres at 50 uM incubated for 10 days by sphere formation assay; type: functional, cell-based
# [4] = biological target: Transcriptional coactivator YAP1 (Homo sapiens) (UniProt P46937); assay: Inhibition of YAP1 in human NCI-H1703 cells assessed as suppression of fibronectin mRNA expression at 5 to 10 uM incubated for 72 hrs by RT-PCR method; type: cell-based
# Sequence of Transcriptional coactivator YAP1 (Homo sapiens) (P46937 whole entry): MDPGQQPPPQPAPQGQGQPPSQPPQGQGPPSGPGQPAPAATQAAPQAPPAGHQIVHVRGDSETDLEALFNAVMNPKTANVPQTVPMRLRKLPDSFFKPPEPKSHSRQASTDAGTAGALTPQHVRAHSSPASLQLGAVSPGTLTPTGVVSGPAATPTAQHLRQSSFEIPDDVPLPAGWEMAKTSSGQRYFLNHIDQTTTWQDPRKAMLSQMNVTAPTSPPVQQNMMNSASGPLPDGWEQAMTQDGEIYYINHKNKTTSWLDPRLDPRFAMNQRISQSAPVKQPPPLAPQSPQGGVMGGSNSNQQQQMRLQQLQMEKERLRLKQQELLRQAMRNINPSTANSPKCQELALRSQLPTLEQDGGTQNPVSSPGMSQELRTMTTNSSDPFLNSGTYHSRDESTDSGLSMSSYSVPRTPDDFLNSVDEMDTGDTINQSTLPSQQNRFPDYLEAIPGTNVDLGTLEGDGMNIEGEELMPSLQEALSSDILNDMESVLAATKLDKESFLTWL
# NCI-H146 [5] = assay: Effect on expression of Nanog mRNA expression in human NCI-H146 cells at 5 to 10 uM incubated for 72 hrs by RT-PCR method; type: cell-based; conditions: nci-h146, 72 h
# [6] = biological target: Transcriptional coactivator YAP1 (Homo sapiens) (UniProt P46937); assay: Inhibition of YAP1 in human NCI-H1703 cells assessed as suppression of PD-L1 mRNA expression at 5 to 10 uM incubated for 72 hrs by RT-PCR method; type: cell-based
# [7] = biological target: Transcriptional coactivator YAP1 (Homo sapiens) (UniProt P46937); assay: Inhibition of YAP1 in human NCI-H1703 cells assessed as suppression of PDK2 mRNA expression at 5 to 10 uM incubated for 72 hrs by RT-PCR method; type: cell-based
# [8] = biological target: Transcriptional coactivator YAP1 (Homo sapiens) (UniProt P46937); assay: Inhibition of YAP1 in human NCI-H1650 cells assessed as suppression of Sox2 mRNA expression at 5 to 10 uM incubated for 72 hrs by RT-PCR method; type: cell-based
# [9] = biological target: Transcriptional coactivator YAP1 (Homo sapiens) (UniProt P46937); assay: Inhibition of YAP1 in human NCI-H1650 cells assessed as suppression of fibronectin mRNA expression at 5 to 10 uM incubated for 72 hrs by RT-PCR method; type: cell-based
# [10] = biological target: Transcriptional coactivator YAP1 (Homo sapiens) (UniProt P46937); assay: Inhibition of YAP1 in human NCI-H1650 cells assessed as suppression of PD-L1 mRNA expression at 5 to 10 uM incubated for 72 hrs by RT-PCR method; type: cell-based
# NCI-H1650 [11] = assay: Effect on expression of Oct4 mRNA expression in human NCI-H1650 cells at 5 to 10 uM incubated for 72 hrs by RT-PCR method; type: cell-based; conditions: nci-h1650, 72 h
# NCI-H1650 [12] = assay: Inhibition of YAP1/TEAD2 interaction in human NCI-H1650 cells assessed as suppression of CTGF mRNA expression at 5 to 10 uM incubated for 72 hrs by RT-PCR method; type: cell-based
# NCI-H1703 [13] = assay: Inhibition of adherence-independent cell growth in human NCI-H1703 cells at 10 uM incubated for 33 days; type: functional, cell-based
# NCI-H1650 [14] = assay: Inhibition of adherence-independent cell growth in human NCI-H1650 cells at 5 uM incubated for 33 days; type: functional, cell-based
# [15] = biological target: Transcriptional coactivator YAP1 (Homo sapiens) (UniProt P46937); assay: Inhibition of YAP1 in human NCI-H1703 cells assessed as suppression of HK2 mRNA expression at 5 to 10 uM incubated for 72 hrs by RT-PCR method; type: cell-based
# [16] = biological target: Transcriptional coactivator YAP1 (Homo sapiens) (UniProt P46937); assay: Inhibition of YAP1 in human NCI-H1703 cells assessed as suppression of vimentin mRNA expression at 5 to 10 uM incubated for 72 hrs by RT-PCR method; type: cell-based
# NCI-H146 [17] = assay: Effect on expression of Oct4 mRNA expression in human NCI-H146 cells at 5 to 10 uM incubated for 72 hrs by RT-PCR method; type: cell-based; conditions: nci-h146, 72 h
# [18] = biological target: Transcriptional coactivator YAP1 (Homo sapiens) (UniProt P46937); assay: Inhibition of YAP1 in human NCI-H1650 cells assessed as suppression of PDK2 mRNA expression at 5 to 10 uM incubated for 72 hrs by RT-PCR method; type: cell-based
# NCI-H1650 [19] = assay: Effect on expression of Nanog mRNA expression in human NCI-H1650 cells at 5 to 10 uM incubated for 72 hrs by RT-PCR method; type: cell-based; conditions: nci-h1650, 72 h
# NCI-H146 [20] = assay: Inhibition of self-renewal capacity in methotrexate insensitive stem-like side-population cells of human NCI-H146 cells assessed as reduction in number of spheres at 2 uM incubated for 3 days after 7 days methotrexate exposure by sphere formation assay; type: functional
# NCI-H1703 [21] = assay: Inhibition of YAP1/TEAD2 interaction in human NCI-H1703 cells assessed as suppression of CTGF mRNA expression at 5 to 10 uM incubated for 72 hrs by RT-PCR method; type: cell-based
# [22] = biological target: Transcriptional coactivator YAP1 (Homo sapiens) (UniProt P46937); assay: Inhibition of YAP1 in human NCI-H146 cells assessed as suppression of PDK2 mRNA expression at 5 to 10 uM incubated for 72 hrs by RT-PCR method; type: cell-based
# NCI-H1650 [23] = assay: Inhibition of adherence-independent cell growth in human NCI-H1650 cells at 10 uM incubated for 33 days; type: functional, cell-based
# [24] = biological target: Transcriptional coactivator YAP1 (Homo sapiens) (UniProt P46937); assay: Inhibition of YAP1 in human NCI-H146 cells assessed as suppression of Sox2 mRNA expression at 5 to 10 uM incubated for 72 hrs by RT-PCR method; type: cell-based
# NCI-H1703 [25] = assay: Effect on expression of Nanog mRNA expression in human NCI-H1703 cells at 5 to 10 uM incubated for 72 hrs by RT-PCR method; type: cell-based; conditions: nci-h1703, 72 h
# [26] = biological target: Transcriptional coactivator YAP1 (Homo sapiens) (UniProt P46937); assay: Inhibition of YAP1 in human NCI-H146 cells assessed as suppression of HK2 mRNA expression at 5 to 10 uM incubated for 72 hrs by RT-PCR method; type: cell-based
# [27] = biological target: Transcriptional coactivator YAP1 (Homo sapiens) (UniProt P46937); assay: Inhibition of YAP1 in human NCI-H1650 cells assessed as suppression of HK2 mRNA expression at 5 to 10 uM incubated for 72 hrs by RT-PCR method; type: cell-based
# NCI-H1975 = assay: Cytotoxicity in gefitinib and erlotinib resistant human NCI-H1975 cells assessed as reduction in cell viability at 1 to 10 uM incubated for 72 hrs by MTT assay; type: functional, cell-based
# [28] = biological target: Transcriptional coactivator YAP1 (Homo sapiens) (UniProt P46937); assay: Inhibition of YAP1 in human NCI-H1703 cells assessed as suppression of Sox2 mRNA expression at 5 to 10 uM incubated for 72 hrs by RT-PCR method; type: cell-based
# NCI-H1703 [29] = assay: Effect on expression of Oct4 mRNA expression in human NCI-H1703 cells at 5 to 10 uM incubated for 72 hrs by RT-PCR method; type: cell-based; conditions: nci-h1703, 72 h
# [30] = biological target: Transcriptional coactivator YAP1 (Homo sapiens) (UniProt P46937); assay: Inhibition of YAP1 in human NCI-H1650 cells assessed as suppression of vimentin mRNA expression at 5 to 10 uM incubated for 72 hrs by RT-PCR method; type: cell-based
# NCI-H1703 [31] = assay: Inhibition of adherence-independent cell growth in human NCI-H1703 cells at 5 uM incubated for 33 days; type: functional, cell-based
# NCI-H1650 [32] = assay: Inhibition of self-renewal capacity in stem-like side-population cells of human NCI-H1650 cells assessed as reduction in number of spheres at 1 to 20 uM incubated for 10 days by sphere formation assay; type: functional, cell-based
# [33] = biological target: Transcriptional coactivator YAP1 (Homo sapiens) (UniProt P46937); assay: Inhibition of YAP1 (unknown origin) assessed as disruption in YAP1/OCT4 interaction at 5 uM by ELISA relative to control
# [34] = biological target: Transcriptional coactivator YAP1 (Homo sapiens) (UniProt P46937); assay: Inhibition of YAP1 (unknown origin) assessed as disruption in YAP1/OCT4 interaction at 50 uM by cell based assay
# [35] = biological target: Transcriptional coactivator YAP1 (Homo sapiens) (UniProt P46937); assay: Inhibition of YAP1 (unknown origin) assessed as disruption in YAP1/OCT4 interaction at 10 uM by ELISA relative to control
# NCI-H1650 [36] = assay: Inhibition of YAP1 in human NCI-H1650 cells assessed as disruption in YAP1/TEAD2 interaction at 20 to 50 uM incubated for 48 hrs by proximity ligation assay; type: cell-based
# [37] = biological target: Transcriptional coactivator YAP1 (Homo sapiens) (UniProt P46937); assay: Inhibition of YAP1 in human A549 cells assessed as disruption in YAP1/OCT4 co-localization at 25 uM incubated for 48 hrs by double immunofluorescence based assay; type: cell-based
# [38] = biological target: Transcriptional coactivator YAP1 (Homo sapiens) (UniProt P46937); assay: Inhibition of YAP1 in human NCI-H1650 cells assessed as disruption in YAP1/OCT4 interaction at 20 to 50 uM incubated for 48 hrs by proximity ligation assay; type: cell-based
# NCI-H1650 [39] = assay: Inhibition of self-renewal capacity in stem-like side-population cells of human NCI-H1650 cells assessed as reduction in number of spheres at 5 to 50 uM incubated for 10 days by sphere formation assay; type: functional, cell-based
smiles,measurement,setting,value
CC1Oc2cc3c(-c4c(O)cc(O)c5c(O)c6c(cc45)OC(C)C(C)C6=O)c(O)cc(O)c3c(O)c2C(=O)C1C (stereo not given),Activity,NCI-H1650 [1],Active
same,Activity,[2],Non-Toxic
same,inhibition,NCI-H1650 [3],Active
O=[N+]([O-])c1nc[nH]c1/C=C/c1cccc(F)c1,inhibition,[4],Active
same,Activity,NCI-H146 [5],Non-Toxic
same,inhibition,[6],Active
same,inhibition,[7],Active
same,inhibition,[8],Active
same,inhibition,[9],Active
same,inhibition,[10],Active
same,Activity,NCI-H1650 [11],Non-Toxic
same,inhibition,NCI-H1650 [12],inactive
same,inhibition,NCI-H1703 [13],Active
same,inhibition,NCI-H1650 [14],Active
same,inhibition,[15],Active
same,inhibition,[16],Active
same,Activity,NCI-H146 [17],Non-Toxic
same,inhibition,[18],Active
same,Activity,NCI-H1650 [19],Non-Toxic
same,inhibition,NCI-H146 [20],Active
same,inhibition,NCI-H1703 [21],inactive
same,inhibition,[22],Active
same,inhibition,NCI-H1650 [23],Active
same,inhibition,[24],Active
same,Activity,NCI-H1703 [25],Non-Toxic
same,inhibition,[26],Active
same,inhibition,[27],Active
same,Activity,NCI-H1975,Active
same,inhibition,[28],Active
same,Activity,NCI-H1703 [29],Non-Toxic
same,inhibition,[30],Active
same,inhibition,NCI-H1703 [31],Active
COC(=O)[C@H](Cc1ccc(OCc2ccccc2)cc1)NC(=O)CC1CCN(C(=O)CCc2ccccc2C)CC1,inhibition,NCI-H1650 [32],Active
O=C(CC1CCN(C(=O)CCc2ccccc2)CC1)N[C@@H](Cc1ccc(OCc2ccccc2)cc1)C(=O)NC1CC1,inhibition,[33],90%
same,inhibition,[34],> 73%
same,inhibition,[35],90%
COC(=O)[C@H](Cc1ccc(OCc2ccccc2)cc1)NC(=O)CC1CCN(C(=O)CC(c2ccccc2)c2ccccc2)CC1,inhibition,NCI-H1650 [32],Active
NC(=O)[C@H](Cc1ccc(OCc2ccccc2)cc1)NC(=O)CC1CCN(C(=O)CCc2ccccc2)CC1,inhibition,NCI-H146 [20],Active
CC(C)(C)OC(=O)N1CCC(CC(=O)N[C@@H](Cc2ccc(OCc3ccccc3)cc2)C(=O)O)CC1,inhibition,[33],75%
same,inhibition,[34],74%
COCCn1c2nc(=O)n(-c3ccccc3)c(=O)c-2nc2ccccc21,inhibition,NCI-H1650 [36],Active
same,Activity,NCI-H1650 [1],Active
same,inhibition,[37],Active
same,inhibition,NCI-H1650 [32],Active
same,inhibition,[38],Active
same,Activity,[2],Non-Toxic
same,inhibition,NCI-H1650 [3],Active
O=C1NC2C(O)C(O)C(O)C(O)C2c2cc3c(c(O)c21)OCO3 (stereo not given),inhibition,NCI-H1650 [3],Active
CC(C)NC(=O)[C@H](Cc1ccc(OCc2ccccc2)cc1)NC(=O)CC1CCN(C(=O)OC(C)(C)C)CC1,inhibition,[33],95%
same,inhibition,[34],83%
O=C(CC1CCN(C(=O)CCc2cccc(F)c2)CC1)N[C@@H](Cc1ccc(OCc2ccccc2)cc1)C(=O)O,inhibition,NCI-H1650 [39],Active
O=C(CC1CCN(C(=O)CCc2ccccc2)CC1)N[C@@H](Cc1ccc(OCc2ccccc2)cc1)C(=O)NCC1CC1,inhibition,[33],95%
same,inhibition,[34],> 84%
CC(C)(C)OC(=O)N1CCC(CC(=O)N[C@@H](Cc2ccc(OCc3ccccc3)cc2)C(=O)NC2CCCCC2)CC1,inhibition,[33],75%
same,inhibition,[34],71%
